Data on seven molecules can be found in patent US10323022B2, “Pyrrolidinyl urea, pyrrolidinyl thiourea and pyrrolidinyl guanidine compounds as TrkA kinase inhibitors” (Array BioPharma Inc., priority 2011, dated 2019).

Chain of TrkA (P04629 33-796): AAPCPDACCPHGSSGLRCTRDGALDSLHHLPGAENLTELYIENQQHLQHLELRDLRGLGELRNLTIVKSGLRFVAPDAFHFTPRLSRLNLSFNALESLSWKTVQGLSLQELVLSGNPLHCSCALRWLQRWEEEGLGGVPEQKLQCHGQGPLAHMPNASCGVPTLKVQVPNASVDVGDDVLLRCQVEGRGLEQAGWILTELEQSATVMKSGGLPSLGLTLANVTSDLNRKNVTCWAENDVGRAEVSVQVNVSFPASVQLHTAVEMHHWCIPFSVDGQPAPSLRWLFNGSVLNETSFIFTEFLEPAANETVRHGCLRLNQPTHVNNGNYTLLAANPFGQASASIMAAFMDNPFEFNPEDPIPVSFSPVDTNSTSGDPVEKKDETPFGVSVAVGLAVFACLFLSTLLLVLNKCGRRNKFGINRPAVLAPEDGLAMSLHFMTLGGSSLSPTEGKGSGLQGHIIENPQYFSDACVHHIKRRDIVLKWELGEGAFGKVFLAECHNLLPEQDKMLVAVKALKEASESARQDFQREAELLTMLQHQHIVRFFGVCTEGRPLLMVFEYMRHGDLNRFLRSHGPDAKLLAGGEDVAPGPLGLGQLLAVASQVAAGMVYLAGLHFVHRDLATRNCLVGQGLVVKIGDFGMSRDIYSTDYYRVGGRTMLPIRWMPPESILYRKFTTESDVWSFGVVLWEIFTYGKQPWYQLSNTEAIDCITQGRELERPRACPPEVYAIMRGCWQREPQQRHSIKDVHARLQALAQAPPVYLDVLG

This assay has as its target TrkA (Homo sapiens (Human), UniProt P04629). The assay is described as follows: TrkA Omnia Assay. The class given is biochemical. Particulars: averaged IC50; 20 nM enzyme, 500 μM ATP, 10 μM peptide substrate. In outline: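 Recombinant TrkA (20 nM) preincubated 10 min at ambient temperature with compound, then Omnia Tyr Peptide #4 (10 μM) and ATP (500 μM) added in 25 mM MOPS pH 7.5, 5 mM MgCl2, 0.005% Triton X-100. Fluorescence (ex 360/em 485 nm) followed continuously for 70 min; IC50 from initial rates by 4- or 5-parameter logistic fit.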
Turning to `COCCN1C[C@@H](NC(=O)Nc2c(-c3ccccc3)nn(CC(F)(F)F)c2C)[C@H](c2ccc(F)c(F)c2)C1` [Example 643, 1-((3S,4R)-4-(3,4-difluorophenyl)-1-(2-methoxyethyl)pyrrolidin-3-yl)-3-(5-methyl-3-phenyl-1-(2,2,2-trifluoroethyl)-1H-pyrazol-4-yl)urea], the half-inhibitory concentration (IC50) is less than 100 nM.

Take `CCn1nc(-c2ccccc2)c(NC(=O)N[C@@H]2CN(CCOC)C[C@H]2c2ccc(F)c(F)c2)c1C` [Example 644, 1-((3S,4R)-4-(3,4-difluorophenyl)-1-(2-methoxyethyl)pyrrolidin-3-yl)-3-(1-ethyl-5-methyl-3-phenyl-1H-pyrazol-4-yl)urea]: the half-inhibitory concentration (IC50) is less than 100 nM.

In turn, `CCn1nc(C)c(NC(=O)N[C@@H]2CN(CCOC)C[C@H]2c2ccc(F)c(F)c2)c1-c1ccccc1` [Example 645, 1-((3S,4R)-4-(3,4-difluorophenyl)-1-(2-methoxyethyl)pyrrolidin-3-yl)-3-(1-ethyl-3-methyl-5-phenyl-1H-pyrazol-4-yl)urea] showed an IC50 of less than 100 nM.

In turn, `COCCN1C[C@@H](NC(=O)Nc2c(C(F)(F)F)nn(C)c2-c2ccccc2)[C@H](c2ccc(F)c(F)c2)C1` [Example 646, 1-((3S,4R)-4-(3,4-difluorophenyl)-1-(2-methoxyethyl)pyrrolidin-3-yl)-3-(1-methyl-5-phenyl-3-(trifluoromethyl)-1H-pyrazol-4-yl)urea] gave an IC50 of 100 to 1000 nM.

`COCCN1C[C@@H](NC(=O)Nc2c(-c3ccccc3)nn(C)c2C(F)(F)F)[C@H](c2ccc(F)c(F)c2)C1` [Example 647, 1-((3S,4R)-4-(3,4-difluorophenyl)-1-(2-methoxyethyl)pyrrolidin-3-yl)-3-(1-methyl-3-phenyl-5-(trifluoromethyl)-1H-pyrazol-4-yl)urea] had an IC50 of less than 100 nM.

Molecule `COCCN1C[C@@H](NC(=O)Nc2cn(-c3ccccc3)nc2C)[C@H](c2ccc(F)c(F)c2)C1` [Example 648, 1-((3S,4R)-4-(3,4-difluorophenyl)-1-(2-methoxyethyl)pyrrolidin-3-yl)-3-(3-methyl-1-phenyl-1H-pyrazol-4-yl)urea] displayed an IC50 of less than 100 nM.

With `COCCN1C[C@@H](NC(=O)Nc2cn(-c3ccccc3)nc2C(F)(F)F)[C@H](c2ccc(F)c(F)c2)C1` [Example 649, 1-((3S,4R)-4-(3,4-difluorophenyvl)-1-(2-methoxyethyl)pyrrolidin-3-yl)-3-(1-phenyl-3-(trifluoromethyl)-1H-pyrazol-4-yl)urea], the half-inhibitory concentration (IC50) lay in the range of 100 to 1000 nM.

By IC50 is commonly meant the point on the concentration scale where inhibition reaches its midpoint. Read a high IC50 as a need for much substance.
